The results in this text go back to PubChem BioAssay (NCI).

Among the test systems are NCI-H226 lung; UACC-257 melanoma; OVCAR-8 ovarian; BT-549 breast; 786-0 renal; SK-MEL-5 melanoma; SK-MEL-2 melanoma; SK-OV-3 ovarian; HCC-2998 colon; OVCAR-5 ovarian.
Common to all, as to assay: inhibition of tumour cell growth, NCI panel, 48 h

Molecules are shown by their SMILES.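 Briefly, cells in 96-well plates were exposed to five compound concentrations for 48 h, and endpoints were estimated by linear interpolation. At the GI50, growth is halved. TGI: total growth inhibition.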

On to `CCc1nc(C)cn1C(=O)OCc1nc2nc(Cl)nc(N3CCOCC3)c2[nH]1`, for which the GI50 in the test on NCI-H226 lung is 1.84 µM; in the test on UACC-257 melanoma, 1.6 µM; with OVCAR-8 ovarian, 1.47 µM; with BT-549 breast it was 1.55 µM; with 786-0 renal, 1.61 µM; in the test on SK-MEL-5 melanoma, 1.64 µM. Moreover, the GI50 is 1.72 µM with SK-MEL-2 melanoma, 4.04 µM with SK-OV-3 ovarian, 1.84 µM in the test on HCC-2998 colon and 1.44 µM with OVCAR-5 ovarian. The TGI was determined as 4.11 µM in the test on NCI-H226 lung; 3.26 µM in the test on UACC-257 melanoma; 3.61 µM in the test with OVCAR-8 ovarian; 4.26 µM with BT-549 breast; 3.29 µM with 786-0 renal; 3.01 µM with SK-MEL-5 melanoma. In addition, the TGI with SK-MEL-2 melanoma stood at 3.29 µM; in the test with SK-OV-3 ovarian, 15.6 µM; with HCC-2998 colon it was 3.44 µM; in the test on OVCAR-5 ovarian, 2.99 µM.

For `C=CCn1c2ccccc2c2c3c(c4c5ccccc5n(CC=C)c4c21)C(=O)N(O)C3=O`, the GI50 with NCI-H226 lung is 6.36 µM; in the test with UACC-257 melanoma, 13.5 µM; with OVCAR-8 ovarian, 4.41 µM; in the test on BT-549 breast it was 3.27 µM; in the test on 786-0 renal it was 2.66 µM; with SK-MEL-5 melanoma, 1.79 µM. For the same compound, the GI50 in the test with SK-MEL-2 melanoma was 13 µM; in the test on SK-OV-3 ovarian, 3.22 µM; with HCC-2998 colon it was 4.94 µM; in the test on OVCAR-5 ovarian it was 5.29 µM. Moreover, the TGI in the test with NCI-H226 lung is 42.2 µM; with UACC-257 melanoma, 54.6 µM; in the test on OVCAR-8 ovarian, 28.3 µM; in the test with BT-549 breast it was 27.9 µM; with 786-0 renal, 40.4 µM; in the test with SK-MEL-5 melanoma, 4.1 µM. Further, the TGI in the test on SK-MEL-2 melanoma was 46.1 µM; with SK-OV-3 ovarian it was more than 100 µM; with HCC-2998 colon, 34 µM; with OVCAR-5 ovarian, 29.6 µM.

`CN1CCC2(CC1)N=C(SCC(=O)Nc1cnc3ccccc3c1)C(c1ccc(Br)cc1)=N2`: the GI50 with NCI-H226 lung is 10.4 µM; in the test on UACC-257 melanoma it was 1.79 µM; with OVCAR-8 ovarian, 2.33 µM; in the test with BT-549 breast, 12 µM; in the test with 786-0 renal, 1.5 µM; in the test on SK-MEL-5 melanoma, 1.68 µM. For the same compound, the GI50 in the test on SK-MEL-2 melanoma is 1.93 µM; in the test with SK-OV-3 ovarian, 4.25 µM; with HCC-2998 colon, 1.85 µM; with OVCAR-5 ovarian it was 2.43 µM. The TGI turned out to be 26.2 µM in the test on NCI-H226 lung; 3.31 µM in the test on UACC-257 melanoma; 5.54 µM with OVCAR-8 ovarian; 24.4 µM in the test on BT-549 breast; 2.85 µM in the test on 786-0 renal; 3.07 µM with SK-MEL-5 melanoma. Also, the TGI amounted to 3.88 µM with SK-MEL-2 melanoma, 15.9 µM with SK-OV-3 ovarian, 3.42 µM in the test with HCC-2998 colon and 7.33 µM with OVCAR-5 ovarian.

As for `O=C(/C=C/c1ccccc1)c1cccc2ccccc12`, the GI50 in the test with NCI-H226 lung was 1.99 µM; in the test on UACC-257 melanoma, 4.13 µM; in the test with OVCAR-8 ovarian, 1.82 µM; in the test on BT-549 breast, 2.31 µM; in the test on 786-0 renal it was 2.82 µM; in the test on SK-MEL-5 melanoma, 2.98 µM. For the same compound, the GI50 in the test with SK-MEL-2 melanoma is 2.97 µM; in the test on SK-OV-3 ovarian, 3.11 µM; with HCC-2998 colon, 2.65 µM; with OVCAR-5 ovarian, 3.78 µM. For the same compound, the TGI in the test with NCI-H226 lung stood at 6.32 µM; with UACC-257 melanoma, 15.5 µM; in the test on OVCAR-8 ovarian it was 3.97 µM; in the test on BT-549 breast, 5.86 µM; in the test with 786-0 renal it was 7.25 µM; in the test with SK-MEL-5 melanoma, 11.7 µM. For the same compound, the TGI in the test with SK-MEL-2 melanoma was found to be 8.3 µM; in the test on SK-OV-3 ovarian, 11.3 µM; in the test with HCC-2998 colon it was 6.81 µM; in the test on OVCAR-5 ovarian it was 17.4 µM.

On to `C=C1c2nc3ccccc3n2C=C(c2cccc(Cl)c2)N1Cc1ccc(OC)cc1`, for which the GI50 with NCI-H226 lung was 4.5 µM; with UACC-257 melanoma, 5.64 µM; in the test on OVCAR-8 ovarian, 2.43 µM; in the test with BT-549 breast it was 1.7 µM; in the test on 786-0 renal it was 3.08 µM; in the test with SK-MEL-5 melanoma, 0.276 µM. Moreover, the GI50 in the test on SK-MEL-2 melanoma is 0.636 µM; with SK-OV-3 ovarian, 2.88 µM; in the test on HCC-2998 colon, 2.32 µM; in the test with OVCAR-5 ovarian, 5.84 µM. Moreover, the TGI in the test on NCI-H226 lung was 30 µM; with UACC-257 melanoma, more than 100 µM; in the test with OVCAR-8 ovarian, more than 57.3 µM; in the test on BT-549 breast, more than 100 µM; in the test on 786-0 renal, 17.3 µM; in the test on SK-MEL-5 melanoma, 3.55 µM. Besides, the TGI in the test on SK-MEL-2 melanoma is 68 µM; in the test with SK-OV-3 ovarian, more than 100 µM; with HCC-2998 colon, 13.5 µM; with OVCAR-5 ovarian, more than 30.9 µM.

Regarding `O=C(O)CCC(c1ccccc1)(c1ccccc1)c1ccccc1`, the TGI in the test with NCI-H226 lung, in the test on UACC-257 melanoma, with OVCAR-8 ovarian, in the test on BT-549 breast, in the test with 786-0 renal and with SK-MEL-5 melanoma was more than 100 µM in each case. The TGI in the test with SK-MEL-2 melanoma was more than 84 µM; with SK-OV-3 ovarian, more than 100 µM; in the test with HCC-2998 colon, more than 100 µM; in the test with OVCAR-5 ovarian, more than 100 µM. For the same compound, the GI50 in the test with BT-549 breast is 80.1 µM.

On to `Cn1c(CCCC(=O)O)nc2cc(N(CCCl)CCCl)ccc21`, for which the GI50 with NCI-H226 lung is more than 66.2 µM; in the test with UACC-257 melanoma, more than 94.7 µM; in the test with OVCAR-8 ovarian, more than 91.2 µM; in the test with BT-549 breast, more than 77.5 µM; with 786-0 renal, more than 80.9 µM; with SK-MEL-5 melanoma it was more than 71.6 µM. For the same compound, the GI50 is more than 100 µM with SK-MEL-2 melanoma, more than 86.4 µM with SK-OV-3 ovarian, more than 65.7 µM with HCC-2998 colon and more than 100 µM with OVCAR-5 ovarian. Moreover, the TGI in the test with NCI-H226 lung, with UACC-257 melanoma, in the test on OVCAR-8 ovarian, with BT-549 breast, with 786-0 renal and with SK-MEL-5 melanoma was more than 100 µM throughout. Also, the TGI in the test on SK-MEL-2 melanoma, with SK-OV-3 ovarian, in the test with HCC-2998 colon and in the test with OVCAR-5 ovarian was more than 100 µM throughout.

On to `O/N=C(\CC(O)(C(F)(F)F)C(F)(F)F)c1cccs1`, for which the TGI in the test on NCI-H226 lung, with UACC-257 melanoma, in the test on OVCAR-8 ovarian, in the test on BT-549 breast, with 786-0 renal and in the test with SK-MEL-5 melanoma was more than 10 µM each time. Moreover, the TGI in the test on SK-MEL-2 melanoma, in the test with SK-OV-3 ovarian, with HCC-2998 colon and in the test on OVCAR-5 ovarian was more than 10 µM throughout.
